Measurements published in paper PMC6128854 (Scientific Reports, 2018).

Test system: high voltage-activated (HVA) calcium channel currents in rat DRG neurons
Format: cell-based

## ω-agatoxin
  further inhibition of the residual Ba2+ currents: 20%
